According to ChEMBL document CHEMBL1132810, “Inhibition of vertebrate squalene epoxidase by isoprenyl gallates and phenylalkyl gallates” (Bioorg Med Chem Lett, 2000):

Each compound was assayed against Squalene monooxygenase (Rattus norvegicus, UniProt P52020) (assay: Compound was evaluated for its inhibitory activity against recombinant rat SE(squalene epoxidase)).
Sequence of Squalene monooxygenase (P52020 whole entry): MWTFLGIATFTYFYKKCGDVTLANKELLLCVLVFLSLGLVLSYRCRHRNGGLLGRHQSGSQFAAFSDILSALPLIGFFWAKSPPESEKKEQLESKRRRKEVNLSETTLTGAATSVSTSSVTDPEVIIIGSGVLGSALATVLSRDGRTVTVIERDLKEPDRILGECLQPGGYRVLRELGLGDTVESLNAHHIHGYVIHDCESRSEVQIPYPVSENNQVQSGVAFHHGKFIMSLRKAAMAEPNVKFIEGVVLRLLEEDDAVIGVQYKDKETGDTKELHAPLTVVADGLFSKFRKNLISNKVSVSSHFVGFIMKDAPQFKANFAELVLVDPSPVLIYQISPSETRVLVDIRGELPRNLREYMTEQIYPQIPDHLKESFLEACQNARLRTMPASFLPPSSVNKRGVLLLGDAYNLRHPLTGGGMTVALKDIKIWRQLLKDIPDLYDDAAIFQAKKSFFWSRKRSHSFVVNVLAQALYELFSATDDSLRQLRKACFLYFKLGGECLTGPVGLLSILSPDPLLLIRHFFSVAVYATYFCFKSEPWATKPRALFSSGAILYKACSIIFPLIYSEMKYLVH
For `O=C(OCCCCc1ccccc1)c1cc(O)c(O)c(O)c1`, the IC50 was 61.3 µM.
`O=C(OCCCCCCCCc1ccccc1)c1cc(O)c(O)c(O)c1` showed an IC50 of 12.5 µM.
For `O=C(O[C@@H]1Cc2c(O)cc(O)cc2O[C@@H]1c1cc(O)c(O)c(O)c1)c1cc(O)c(O)c(O)c1` [EPIGALOCATECHIN GALLATE], the IC50 was 0.69 µM.
Compound `CC(C)=CCC/C(C)=C/COC(=O)c1cc(O)c(O)c(O)c1` [Geranyl gallate] has an IC50 of 12.5 µM.
Work on `CC(C)=CCC/C(C)=C/CC/C(C)=C/COC(=O)c1cc(O)c(O)c(O)c1` yielded an IC50 of 1.5 µM.
Work on `CC(C)=CCC/C(C)=C/CC/C(C)=C/CC/C=C(\C)CC/C=C(\C)CCCOC(=O)c1cc(O)c(O)c(O)c1` yielded an IC50 of 5.1 µM.
Work on `CCCCCCCCCCCCOC(=O)c1cc(O)c(O)c(O)c1` [DODECYL GALLATE] yielded an IC50 of 0.061 µM.
`O=C(OCCCCCCc1ccccc1)c1cc(O)c(O)c(O)c1` showed an IC50 of 11.9 µM.
`O=C(OCCCCCCCCCCc1ccccc1)c1cc(O)c(O)c(O)c1` gave an IC50 of 15.3 µM.
`CC(C)=CCC/C(C)=C/CC/C(C)=C/CC/C(C)=C/COC(=O)c1cc(O)c(O)c(O)c1` gave an IC50 of 4.5 µM.
